Experimental data published in patent US20250375473A1, “Pharmaceutical composition for treating cancer comprising an ionic compound having metal ion binding thereto” (METAFINES.CO.LTD., priority 2018, published 2025).
Several values for one entry are separate records, joined by “and”; a condition that tells them apart may be missing. Equal entries are not always repeated.

Key:
[1] = tested on: human colorectal cancer cell lines (HCT-116 and HT-29); assay: Change in ascorbic acid level in cancer cells; type: cell-based; conditions: 1 mM; 24 h; lysate; vs untreated control
Description: After culture, the cultured cancer cells were pulverized with a homogenizer and centrifuged, and the concentration of ascorbic acid contained in the lysate was measured using an ascorbic acid assay kit (Biovision, San Francisco, CA).

[2] = tested on: poly (ADP-ribose) polymerase 1 (PARP-1); assay: Western blot, PARP-1 expression in HCT-116; type: cell-based, human; conditions: 24 h
Description: The cultured cancer cells were pulverized with a homogenizer and centrifuged, and the expression levels of poly (ADP-ribose) polymerase 1 (PARP-1), β-catenin, VEGF and β-actin proteins contained in the lysate were measured using Western blot.

[3] = tested on: colorectal cancer cell line (DLD-1); assay: MTT assay, 72 h, colorectal cancer cell line; type: cell-based; conditions: DLD-1; 72 h; MTT
Description: (§1) The calcium salts of Examples 1 to 3 were added to each well by concentration (20 mg/ ? , mg/ ? , 0.8 mg/ ? , 0.16 mg/ ? , 0.032 mg/ ? , 0.0064 mg/ ? , 0.00128 mg/ ? , 0.000256 mg/ ? ). […] The supernatant was removed using a centrifuge, DMSO 200 ? was added to each well to dissolve the MTT stained precipitate, and OD540 value was measured at 540 nm with an ELISA reader.

[4] = tested on: breast cancer cell line (MDA-MB-231); assay: MTT assay, 72 h, breast cancer cell line; type: cell-based; conditions: MDA-MB-231; 72 h; MTT
Description: as §1

[5] = tested on: brain cancer cell line (U87MG); assay: MTT assay, 72 h, brain cancer cell line; type: cell-based; conditions: U87MG, MTT
Description: as §1

HCT-116 cell [6] = assay: IC50 of each drug alone, 48 h, HCT-116; type: cell-based, human; conditions: read-out: IC50 value, HCT-116 cell
Description: (§2) Then, various concentration of Example or chemical anticancer drugs (Fluorouracil (5-FU), SN-38, Paclitaxel (PTX)) were treated thereto alone.

HT-29 cell = assay: IC50 of each drug alone, 48 h, HT-29; type: cell-based, human
Description: as §2

DLD-1 cell = assay: IC50 of each drug alone, 48 h, DLD-1; type: cell-based
Description: as §2

[7] = tested on: DLD-1 cells transplanted into the colon; assay: Colorectal cancer mouse model (DLD-1 orthotopic model); type: in vivo; conditions: 100 mg/kg IV once a day (Qdx4) for 1 week; dissected after 1 week; vs control
Description: (§3) In order to construct an animal model with orthotopic xenotransplantation (orthotopic xenograft) and general animal model (orthotopic xenograft), A549/LUC cells and DLD-1 cells were subcultured, and then the cancer cells were injected into the lung and colon of the mice, respectively.
(§4) Since the model was directly injected with cancer cells into the mouse organ, the growth of cancer was not confirmed by observation of the mouse appearance. Therefore, in the animal model to which A549/LUC cells were injected, D-Luciferin was injected intraperitoneally every 7 days to determine the growth saturation of cancer by luminescence imaging measurement using IVIS spectrum imaging system (Xenogen) device. On the other hand, in the animal model to which DLD-1 cells were injected, after 7 days, the experimental subjects were sacrificed to determine the growth saturation of cancer.
In other words, general DLD-1 cells were transplanted into the colon to construct a colorectal cancer mouse model (DLD-1 orthotopic model), and orthotopic xenotransplantation was conducted to the lung to construct a lung cancer mouse model (A549/LUC orthotopic model).
Further, weight of cancer tissue was measured to confirm the anticancer efficacy of the inventive substance in vivo and the results are shown in FIG. 19B.

[8] = tested on: A549/LUC cells implanted into the lung; assay: Lung cancer mouse model (A549/LUC orthotopic model); type: in vivo; conditions: 100 mg/kg IV once a day (Qdx4) for 5 weeks; vs control
Description: as §3
as §4, with “cancer. […]” for “cancer.”
The calcium salts of Examples 1 to 3 were administered to the same mouse model constructed in Test Example 5-1 (A549/LUC orthotopic model), respectively. […] Further, in order to quantify each imaging result more accurately, in vivo images were obtained by measuring ROI (Region of Interest), which is a program of IVIS spectrum (Xenogen), and the results are shown in FIG. 21.

[9] = Maintenance of hetero salt form in aqueous solution (MS); type: physicochemical; conditions: added to water
[10] = ASCA101 in beagle dog plasma after intravenous administration (LC-MS/MS); type: in vivo
[11] = ASCA101 in rat plasma after intravenous administration (LC-MS/MS); type: in vivo; conditions: 0.083 hours after intravenous administration
DLD-1 = assay: Hetero salts vs homo salts, cell viability and cytotoxicity, DLD-1; type: cell-based; conditions: DLD-1; 10 mM
Description: (§5) Hetero salts prepared according to the examples (ASCA101, ASCA201) and homo salts were applied to colorectal cancer cell lines, and their effects on cell viability and cytotoxicity were evaluated.
(§6) Herein, “Na-ASC” refers to sodium ascorbate, “Na-DCA” refers to sodium dichloroacetate, “Ca (ASC) 2” refers to calcium ascorbate, “Ca (DCA) 2” refers to calcium dichloroacetate, and “Ca (LA) 2” refers to calcium lactate.

SW480 = assay: Hetero salts vs homo salts, cell viability and cytotoxicity, SW480; type: cell-based; conditions: SW480; 5 mM
Description: as §5, §6

PDH enzyme = assay: Time-dependent PDH enzyme activity in cancer cells; type: cell-based; conditions: DLD-1 and HT-29 cancer cells; FIG. 29
[12] = GLP toxicity studies (NOAEL), intravenous and oral; type: in vivo
Description: In detail, the ionic compound is administered in a dose ranging from 1.61 mg/kg to 64.86 mg/kg based on body weight of the subject. Reflecting the results of actual nonclinical efficacy, toxicity and clinical phase 1 PK/PD (pharmacokinetics/pharmacodynamics) studies, the clinically effective doses are expected to be in the HED (Human Equivalent Dose) ranges 1.61 mg/kg for intravenous administration and 7.22 mg/kg for oral administration-up to a maximum of 32.43 mg/kg for intravenous administration and 64.86 mg/kg for oral administration.

[13] = tested on: lung cancer cell line (A-549); assay: MTT assay, 48 h, A549; conditions: 48 h, MTT
Description: (§7) 7 cell lines were aliquoted to each well of a 96-well plate at 5×10^3 cells, and cultured for 24 hours. […] The drug-treated cells were cultured in an incubator (37° C., 5% CO2) for 48 hours, and 5 mg/ ? MTT reagent 10 ? was added to each well and cultured for additional 4 hours. Then, culture medium was removed and DMSO 100 ? was treated to dissolve the MTT stained precipitate, and absorbance was measured at 540 nm with a microplate reader.

[14] = tested on: colorectal cancer cell line (HT-29); assay: MTT assay, 48 h, HT-29; conditions: 48 h, MTT
Description: as §7

[15] = tested on: liver cancer cell line (HepG2); assay: MTT assay, 48 h, HepG2; conditions: 48 h, MTT
Description: as §7

[16] = tested on: ovarian cancer cell line (A2780); assay: MTT assay, 48 h, A2780; conditions: 48 h, MTT
Description: as §7

[17] = tested on: pancreatic cancer cell line (PANC-1); assay: MTT assay, 48 h, PANC-1; conditions: 48 h, MTT
Description: as §7

[18] = tested on: colorectal cancer cell line (HCT-116); assay: MTT assay, 48 h, HCT-116; conditions: 48 h; MTT; value in brackets
Description: as §7

[19] = tested on: stomach cancer cell line (SNU-638); assay: MTT assay, 48 h, SNU-638; conditions: 48 h, MTT
Description: as §7

HCT-116 cell [20] = assay: Co-treatment with chemical anticancer drug, growth inhibition and combinational index; conditions: 48 h, co-treated with Paclitaxel, PTX (μM) in c0 and Example 1 (μM) in c1 of the row
Description: As the co-delivery effect, the synergistic effect was CI≤0.85, the additive effect was 0.85<CI≤1.15, and the antagonistic effect was CI>1.15.

## O=C([O-])C(Cl)Cl.O=C1O[C@H]([C@@H](O)CO)C([O-])=C1O.[Ca+2] [Example 1, calcium salts of dichloroacetic acid and ascorbic acid]
[1]
  ascorbic acid concentration in cancer cells: increased
[2]
  concentration at which expression level of full length PARP-1 was decreased the most: 0.18 mg/mL
[3]
  IC50 of Colorectal cancer cell line: 70 µg/mL
[4]
  IC50 of Breast cancer cell line: 40 µg/mL
[5]
  IC50 of Brain cancer cell line: 500 µg/mL
HCT-116 cell [6]
  IC50: 311 µM
HT-29 cell
  IC50: 1330 µM
DLD-1 cell
  IC50: 360 µM
[7]
  growth of cancer cells / weight of cancer tissue: significantly suppressed growth of cancer cells
[8]
  anticancer efficacy and metastasis (luminescence imaging, ROI): the growth and metastasis of cancer tissues was not shown at all
[9]
  retention of hetero salt structure in aqueous solution (MS peaks): can retain its hetero salt structure in aqueous solution
[10]; 0.083 hours after intravenous administration
  ASCA101 concentration in beagle dog plasma: 26.835 µg/mL
[10]; plasma of rats and beagles after intravenous administration
  maintenance of hetero salt form in plasma / liquid medium: the hetero salt form was maintained in the bloodstream
[11]
  ASCA101 concentration in rat plasma: 26.835 µg/mL
DLD-1
  cell viability, DLD-1 (10 mM): 11.43
SW480
  cell viability, SW480 (5 mM): 20.72
PDH enzyme
  time-dependent PDH activity: greater increase in PDH activity during the first 6 hours, with the activity remaining relatively stable beyond 6 hours
[12]; intravenous route
  human equivalent dose (HED) from NOAEL with safety factor of 10, intravenous: 1.61 mg/kg
[12]; oral route
  human equivalent dose (HED) from NOAEL with safety factor of 10, oral: 7.22 mg/kg
[13]; value in brackets
  IC50 of A549 Lung cancer (mg/ml): (0.79) mg/ml
[13]; read-out: IC50 mM of A549 Lung cancer
  IC50: 2.3 mM
[14]; value in brackets
  IC50 of HT-29 Colorectal cancer cell line (mg/ml): (0.29) mg/ml
[14]; read-out: IC50 mM of HT-29 Colorectal cancer cell line
  IC50: 0.83 mM
[15]; value in brackets
  IC50 of HepG2 Liver cancer (mg/ml): (0.72) mg/ml
[15]; read-out: IC50 mM of HepG2 Liver cancer
  IC50: 2.1 mM
[16]; value in brackets
  IC50 of A2780 Ovarian cancer (mg/ml): (0.06) mg/ml
[16]; read-out: IC50 mM of A2780 Ovarian cancer
  IC50: 0.17 mM
[17]; value in brackets
  IC50 of PANC-1 Pancreatic cancer (mg/ml): (0.14) mg/ml
[17]; read-out: IC50 mM of PANC-1 Pancreatic cancer
  IC50: 0.42 mM
[18]
  IC50 of HCT-116 Colorectal cancer cell line (mg/ml): (0.12) mg/ml
[19]; value in brackets
  IC50 of SNU-638 Stomach cancer (mg/ml): (0.48) mg/ml
[19]; read-out: IC50 mM of SNU-638 Stomach cancer
  IC50: 1.4 mM
HCT-116 cell [20]
  Inhibition effect (%): 73.298% and 63.569%
